Assay results from patent US7135502B1, “Colchinol derivatives as vascular damaging agents” (priority 1999, dated 2006).

Assays:
CaNT tumour vasculature = experiment: Activity against tumour vasculature measured by fluorescent dye (Hoechst 33342), tumour functional vascular volume; format: in vivo; details: fluorescent dye method, CaNT tumour-bearing mice, dye 24 hours after drug treatment; for % Decrease in vascular volume: intraperitoneal, dose not given
Description: (b) Activity Against Tumour Vasculature Measured by Fluorescent Dye
Tumour functional vascular volume of CaNT tumour-bearing mice was measured using the fluorescent dye Hoechst 33342 according to the method of Smith et al (Brit. Jnl. Cancer 1988, 57, 247–253). Five animals were used in control and treated group. The fluorescent dye was dissolved in saline at 6.25 mg/ml and injected intravenously at 10 mg/kg 24 hours after intraperitoneal drug treatment. One minute later, animals were killed and tumours excised and frozen; 10 μm sections were cut at 3 different levels and observed under UV illumination using an Olympus microscope equipped with epifluorescence. Blood vessels were identified by their fluorescent outlines and vascular volume was quantified using a point scoring system based on that described by Chalkley, (Jnl. Natl. Cancer Inst., 1943, 4, 47–53). All estimates were based on counting a minimum of 100 fields from sections cut at the 3 different levels.

tubulin = experiment: Tubulin polymerisation assay; format: biochemical; details: method of O. Boye et al Med. Chem. Res., 1991, 1, 142-150
Source text: The ability of the compounds to bind to preparations of mammalian tubulin can be evaluated by a number of methods available in the literature, for example by following temperature initiated tubulin polymerisation by turbidity in the absence and presence of the compound (for example O. Boye et al Med. Chem. Res., 1991, 1, 142–150).

vasculature = details: at maximum tolerated dose; Lancet, 1994, 344, 1267-1271; cited from earlier work

## COc1cc2c(c(OC)c1OC)-c1ccc(N)cc1C(NC(C)=O)CC2 (centres unmarked) [N-[3-amino-9,10,11-trimethoxy-6,7-dihydro-5H-dibenzo[a,c]cyclohepten-5-yl]acetamide]
CaNT tumour vasculature; 50 mg/kg intraperitoneally
  decrease in perfused vascular volume relative to control: 88%
tubulin
  IC50: 58 µM

## COc1cc2c(c(OC)c1OC)-c1ccc(OC(=O)N3CCC(N4CCCCC4)CC3)cc1C(NC(C)=O)CC2 (centres unmarked) [Example 3, N-[3-(4-(1-piperidinyl)piperidinylcarbonyloxy)-9,10,11-trimethoxy-6,7-dihydro-5H-dibenzo[a,c]cyclohepten-5-yl]acetamide]
CaNT tumour vasculature
  % Decrease in vascular volume: 45%

## COc1cc2c(c(OC)c1OC)-c1ccc(NC(=O)[C@H](C)N)cc1C(NC(C)=O)CC2 (some centres unmarked) [Example 2, N-[3-(alanylamino)-9,10,11-trimethoxy-6,7-dihydro-5H-dibenzo[a,c]cyclohepten-5-yl]acetamide]
CaNT tumour vasculature
  % Decrease in vascular volume: 95%

## CC(=O)O[C@@]12CO[C@@H]1C[C@H](O)[C@@]1(C)C(=O)[C@H](O)C3=C(C)[C@@H](OC(=O)[C@H](O)[C@@H](NC(=O)OC(C)(C)C)c4ccccc4)C[C@@](O)([C@@H](OC(=O)c4ccccc4)[C@H]21)C3(C)C [docetaxel]
vasculature
  vascular-damaging activity when administered at the MTD: no vascular-damaging activity
